Laboratory results from US20070128731A1, “Methods for preparing crystalline rapamycin and for measuring crystallinity of rapamycin compounds using differential scanning calorimetry” (Wyeth, priority 2005, published 2007).

Experiment: Storage stability of crystalline rapamycin followed by DSC
Assay type: physicochemical
Method: In one example, the crystallinity is maintained over a period of about 2 months. In another example, the crystallinity is maintained over a period of about 4 months. In a further example, the crystallinity is maintained up to about 60% relative humidity.
In this example, samples containing rapamycin (Table 3) were analyzed by DSC and optical microscopy. The morphology and approximate particle size were determined using optical microscopy. A standard DSC sample ramp rate of 10° C./min and a hermetically sealed aluminum pan were utilized.
Sample 2 contained crystalline rapamycin and about 2 to about 3% of oxidative/hydrolysis degradation impurities and was prepared using the process of Example 3. A portion of the batch was maintained at 25° C. and 60% relative humidity for 2 months.
Sample 3 contains crystalline rapamycin and about 2 to about 3% of oxidative/hydrolysis degradation impurities and was prepared using the process of example 3. A portion of the batch was subjected to 25° C. and 60% relative humidity for 4 months.

In the case of `CO[C@H]1C[C@@H]2CC[C@@H](C)[C@@](O)(O2)C(=O)C(=O)N2CCCC[C@H]2C(=O)O[C@H]([C@H](C)C[C@@H]2CC[C@@H](O)[C@H](OC)C2)CC(=O)[C@H](C)/C=C(\C)[C@@H](O)[C@@H](OC)C(=O)[C@H](C)C[C@H](C)/C=C/C=C/C=C/1C` [rapamycin], the “effect of low levels of impurities on DSC melting temperature over time” value (about 2 to about 3% oxidative/hydrolysis degradation impurities, 25° C. and 60% relative humidity, 2 and 4 months) is reported as “do not affect”, the crystallinity on storage (period up to 4 months at up to about 60% relative humidity) is reported as “substantially maintained” and the “change in the DSC melting endotherm on storage” value (stored for up to 4 months at up to about 60% relative humidity) is reported as “minimal change”.
